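Tested at 5 concentrations; 48 h exposure; 96-well plates; endpoints linearly interpolated, else capped at highest concentration. Definition used: TGI = concentration required for complete inhibition of growth.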
Legend:
Assay in all cases: DTP human tumour cell line panel, 48 h
KM12 colon = system: KM12 colon
CAKI-1 renal = system: CAKI-1 renal
NCI-H226 lung = system: NCI-H226 lung
NCI/ADR-RES ovarian = system: NCI/ADR-RES ovarian
OVCAR-4 ovarian = system: OVCAR-4 ovarian
RXF 393 renal = system: RXF 393 renal
T-47D breast = system: T-47D breast
SK-MEL-28 melanoma = system: SK-MEL-28 melanoma
RPMI-8226 leukemia = system: RPMI-8226 leukemia
SNB-75 CNS = system: SNB-75 CNS

Row | SMILES | TGI (KM12 colon) [µM] | TGI (CAKI-1 renal) [µM] | TGI (NCI-H226 lung) [µM] | TGI (NCI/ADR-RES ovarian) [µM] | TGI (OVCAR-4 ovarian) [µM] | TGI (RXF 393 renal) [µM] | TGI (T-47D breast) [µM] | TGI (SK-MEL-28 melanoma) [µM] | TGI (RPMI-8226 leukemia) [µM] | TGI (SNB-75 CNS) [µM]
1 | Cn1c(=S)[nH]c(N)c(Cc2ccccc2)c1=O | > 100 | > 100 | > 100 | > 100 | > 100 | > 100 | > 100 | > 100 | > 100 | > 100
2 | CCOC(=O)c1cc([N+](=O)[O-])c(Sc2ncnc3nc[nH]c23)c([N+](=O)[O-])c1 | 24.5 | 12.7 | 17.3 | 14.3 | – | 23.3 | 30 | 29.2 | 6.08 | –
3 | O=c1oc2ccccc2n1P(=O)(Oc1ccc(Cl)cc1)n1c(=O)oc2ccccc21 | > 100 | > 100 | > 100 | – | > 100 | > 100 | – | > 100 | – | > 100
4 | COc1ccc(CNc2nc3cc(C(F)(F)F)ccc3nc2C(=O)O)cc1 | 63.6 | > 100 | > 100 | 58.1 | > 100 | – | > 100 | > 100 | > 100 | > 100
5 | C[C@@H](c1ccccc1)N1CO[C@@]2(C#Cc3ccc4c(c3)OCO4)CCC[C@@H]12 | 34.7 | 34.6 | 38.6 | 30.8 | 28.4 | 24.4 | 34 | 39 | 38 | 27.9
6 | CC(=O)O[C@@H]1CC[C@@]2(C)C(=O)C34C[C@@]5(C)C([C@@H](C)CCCC(C)C)CCC5(C)[C@](O)(O3)C(=O)[C@H]4C2C1(C)C (some centres undefined) | 24 | 29.8 | 29.6 | – | 26.2 | – | – | 35.6 | 38.9 | 29.6
7 | C=C1CN2CCc3c([nH]c4ccccc34)C2CC1CC(=O)N(C)C (centres undefined) | > 309 | > 309 | > 309 | – | – | > 309 | – | > 309 | > 309 | –
8 | CCOC(=O)CC1Nc2ccccc2C12CCc1c([nH]c3ccccc13)C2C(=O)OCC (centres undefined) | > 100 | > 100 | – | > 100 | > 100 | > 100 | > 100 | > 100 | 11.1 | 4.72
9 | O=C(Nc1ccc(F)cc1)c1cc2c(cc1Cl)Sc1nccn1S2(=O)=O | > 100 | > 100 | > 100 | > 100 | > 100 | > 100 | > 100 | > 100 | – | 46.9
10 | Cc1cccc(-c2nc(-c3cnccn3)n(Cc3ccccc3)n2)c1 | > 100 | – | – | > 100 | > 100 | 94.1 | > 100 | > 100 | > 100 | 30.2
11 | C[C@]12CCc3nn(-c4ccccc4)nc3C1CC[C@@H]1C2CC[C@]2(C)C(=O)CCC12 (some centres undefined) | > 100 | > 100 | > 100 | – | > 100 | > 100 | – | > 100 | > 100 | > 100
12 | CC(N)C(C)c1ccccc1 (centres undefined) | > 100 | > 100 | > 100 | – | > 100 | > 100 | – | > 100 | > 100 | > 100
